Measured values as given in patent US20220281848A1, “PYRAZOLE-SUBSTITUTED PYRROLIDINONES AS HERBICIDES” (FMC Corporation, priority 2019, published 2022).

Test system: plants
Assay: Test D pre-emergence, other plants of Tables D1 and D3
Type: in vivo
Settings: preemergent, 20 DAA
How it was run: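 Seeds treated with herbicide safener; sown in soil; glasshouse, 16 h light, 65% humidity. Sprayed day 1 (pre) or ~day 12 (post). Spray in 0.2% v/v adjuvant. Scored 0–100 damage: 20 DAA pre, 15 d post.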

## CCn1nc([C@H]2CN(C)C(=O)[C@@H]2C(=O)Nc2cccc(F)c2F)c2cc(F)ccc21 [Compound 8]
Rate 15
  damage to plant (100=total damage to plant; 0=no damage to plant), ABUTH: 0
  damage to plant (100=total damage to plant; 0=no damage to plant), AMARE: 0
  damage to plant (100=total damage to plant; 0=no damage to plant), BIDPI: 0
  damage to plant (100=total damage to plant; 0=no damage to plant), BRAPL: 20
  damage to plant (100=total damage to plant; 0=no damage to plant), CYPES: 0
  damage to plant (100=total damage to plant; 0=no damage to plant), DIGSA: 10
  damage to plant (100=total damage to plant; 0=no damage to plant), ECHCG: 30
  damage to plant (100=total damage to plant; 0=no damage to plant), ELEIN: 0
  damage to plant (100=total damage to plant; 0=no damage to plant), EPHHL: 0
  damage to plant (100=total damage to plant; 0=no damage to plant), GLXMA: 0
  damage to plant (100=total damage to plant; 0=no damage to plant), IPOHE: 0
  damage to plant (100=total damage to plant; 0=no damage to plant), ORYSA: 0
  damage to plant (100=total damage to plant; 0=no damage to plant), PANMI: 0
  damage to plant (100=total damage to plant; 0=no damage to plant), SETFA: 10
  damage to plant (100=total damage to plant; 0=no damage to plant), SIDSP: 0
  damage to plant (100=total damage to plant; 0=no damage to plant), SORVU: 0
Rate 30
  damage to plant (100=total damage to plant; 0=no damage to plant), ABUTH: 0
  damage to plant (100=total damage to plant; 0=no damage to plant), AMARE: 0
  damage to plant (100=total damage to plant; 0=no damage to plant), BIDPI: 0
  damage to plant (100=total damage to plant; 0=no damage to plant), BRAPL: 70
  damage to plant (100=total damage to plant; 0=no damage to plant), CYPES: 0
  damage to plant (100=total damage to plant; 0=no damage to plant), DIGSA: 90
  damage to plant (100=total damage to plant; 0=no damage to plant), ECHCG: 90
  damage to plant (100=total damage to plant; 0=no damage to plant), ELEIN: 0
  damage to plant (100=total damage to plant; 0=no damage to plant), EPHHL: 0
  damage to plant (100=total damage to plant; 0=no damage to plant), GLXMA: 0
  damage to plant (100=total damage to plant; 0=no damage to plant), IPOHE: 0
  damage to plant (100=total damage to plant; 0=no damage to plant), ORYSA: 0
  damage to plant (100=total damage to plant; 0=no damage to plant), PANMI: 0
  damage to plant (100=total damage to plant; 0=no damage to plant), SETFA: 80
  damage to plant (100=total damage to plant; 0=no damage to plant), SIDSP: 0
Rate 60
  damage to plant (100=total damage to plant; 0=no damage to plant), ABUTH: 0
  damage to plant (100=total damage to plant; 0=no damage to plant), AMARE: 0
  damage to plant (100=total damage to plant; 0=no damage to plant), BIDPI: 0
  damage to plant (100=total damage to plant; 0=no damage to plant), BRAPL: 70
  damage to plant (100=total damage to plant; 0=no damage to plant), CYPES: 0
  damage to plant (100=total damage to plant; 0=no damage to plant), DIGSA: 100
  damage to plant (100=total damage to plant; 0=no damage to plant), ECHCG: 90
  damage to plant (100=total damage to plant; 0=no damage to plant), ELEIN: 0
  damage to plant (100=total damage to plant; 0=no damage to plant), EPHHL: 0
  damage to plant (100=total damage to plant; 0=no damage to plant), GLXMA: 0
  damage to plant (100=total damage to plant; 0=no damage to plant), IPOHE: 0
  damage to plant (100=total damage to plant; 0=no damage to plant), ORYSA: 0
  damage to plant (100=total damage to plant; 0=no damage to plant), PANMI: 0
  damage to plant (100=total damage to plant; 0=no damage to plant), SETFA: 70
  damage to plant (100=total damage to plant; 0=no damage to plant), SIDSP: 0
Rate 130
  damage to plant (100=total damage to plant; 0=no damage to plant), ABUTH: 0
  damage to plant (100=total damage to plant; 0=no damage to plant), AMARE: 0
  damage to plant (100=total damage to plant; 0=no damage to plant), BIDPI: 0
  damage to plant (100=total damage to plant; 0=no damage to plant), BRAPL: 80
  damage to plant (100=total damage to plant; 0=no damage to plant), CYPES: 0
  damage to plant (100=total damage to plant; 0=no damage to plant), DIGSA: 100
  damage to plant (100=total damage to plant; 0=no damage to plant), ECHCG: 90
  damage to plant (100=total damage to plant; 0=no damage to plant), ELEIN: 0
  damage to plant (100=total damage to plant; 0=no damage to plant), EPHHL: 0
  damage to plant (100=total damage to plant; 0=no damage to plant), GLXMA: 0
  damage to plant (100=total damage to plant; 0=no damage to plant), IPOHE: 0
  damage to plant (100=total damage to plant; 0=no damage to plant), ORYSA: 0
  damage to plant (100=total damage to plant; 0=no damage to plant), PANMI: 0
  damage to plant (100=total damage to plant; 0=no damage to plant), SETFA: 90
  damage to plant (100=total damage to plant; 0=no damage to plant), SIDSP: 0
  damage to plant (100=total damage to plant; 0=no damage to plant), SORVU: 10
Rate 250
  damage to plant (100=total damage to plant; 0=no damage to plant), ABUTH: 0
  damage to plant (100=total damage to plant; 0=no damage to plant), AMARE: 0
  damage to plant (100=total damage to plant; 0=no damage to plant), BIDPI: 0
  damage to plant (100=total damage to plant; 0=no damage to plant), BRAPL: 90
  damage to plant (100=total damage to plant; 0=no damage to plant), CYPES: 0
  damage to plant (100=total damage to plant; 0=no damage to plant), DIGSA: 100
  damage to plant (100=total damage to plant; 0=no damage to plant), ECHCG: 90
  damage to plant (100=total damage to plant; 0=no damage to plant), ELEIN: 0
  damage to plant (100=total damage to plant; 0=no damage to plant), EPHHL: 0
  damage to plant (100=total damage to plant; 0=no damage to plant), GLXMA: 0
  damage to plant (100=total damage to plant; 0=no damage to plant), IPOHE: 0
  damage to plant (100=total damage to plant; 0=no damage to plant), ORYSA: 0
  damage to plant (100=total damage to plant; 0=no damage to plant), PANMI: 0
  damage to plant (100=total damage to plant; 0=no damage to plant), SETFA: 100
  damage to plant (100=total damage to plant; 0=no damage to plant), SIDSP: 0
Rate 500
  damage to plant (100=total damage to plant; 0=no damage to plant), ABUTH: 0
  damage to plant (100=total damage to plant; 0=no damage to plant), AMARE: 0
  damage to plant (100=total damage to plant; 0=no damage to plant), BIDPI: 0
  damage to plant (100=total damage to plant; 0=no damage to plant), BRAPL: 100
  damage to plant (100=total damage to plant; 0=no damage to plant), CYPES: 0
  damage to plant (100=total damage to plant; 0=no damage to plant), DIGSA: 100
  damage to plant (100=total damage to plant; 0=no damage to plant), ECHCG: 100
  damage to plant (100=total damage to plant; 0=no damage to plant), ELEIN: 0
  damage to plant (100=total damage to plant; 0=no damage to plant), EPHHL: 70
  damage to plant (100=total damage to plant; 0=no damage to plant), GLXMA: 0
  damage to plant (100=total damage to plant; 0=no damage to plant), IPOHE: 0
  damage to plant (100=total damage to plant; 0=no damage to plant), ORYSA: 0
  damage to plant (100=total damage to plant; 0=no damage to plant), PANMI: 30
  damage to plant (100=total damage to plant; 0=no damage to plant), SETFA: 100
  damage to plant (100=total damage to plant; 0=no damage to plant), SIDSP: 0
